Laboratory results: the NIST ThermoML archive (doi:10.1021/je700026d)

Tests used:
[1] = xn = mol fraction of the nth substance listed; conditions: Liquid; for speed of sound: 100 kPa, Linear variable-path acoustic interferometer; for viscosity: Capillary tube (Ostwald / Ubbelohde) method; for mass density: Pycnometric method
[2] = Liquid; for speed of sound: 100 kPa, Linear variable-path acoustic interferometer; for viscosity / mass density: 101.3 kPa; for viscosity: Capillary tube (Ostwald / Ubbelohde) method; for mass density: Pycnometric method

COCCO [2-methoxyethan-1-ol] + NC=O
Conditions	speed of sound [m/s]
[1], 298.15 K, x2 = 0	1339.4

[1], 101.3 kPa, x2 = 0
Conditions	mass density [kg/m3]	viscosity [mPa·s]
298.15 K	959.7	1.543
308.15 K	951.5	1.257
318.15 K	945.9	1.051

COCCOC [1,2-dimethoxyethane]
[2]
Conditions	mass density [kg/m3]	speed of sound [m/s]	viscosity [mPa·s]
298.15 K	861.5	1146.2	0.409
308.15 K	850.7	–	0.366
318.15 K	839.6	–	0.33

CC#N [acetonitrile]
[2]
Conditions	mass density [kg/m3]	speed of sound [m/s]	viscosity [mPa·s]
298.15 K	776	1260.2	0.344
308.15 K	766.3	–	0.313
318.15 K	755	–	0.289

NC=O [formamide]
[2]
Conditions	mass density [kg/m3]	speed of sound [m/s]	viscosity [mPa·s]
298.15 K	1129.2	1591.3	3.302
308.15 K	1120.5	–	2.542
318.15 K	1111.1	–	2.001

NC=O [formamide] + CC(=O)c1ccccc1
Conditions	speed of sound [m/s]
[1], 298.15 K, x1 = 1	1591.3

[1], 101.3 kPa, x1 = 1
Conditions	mass density [kg/m3]	viscosity [mPa·s]
298.15 K	1129.2	3.302
308.15 K	1120.5	2.542
318.15 K	1111.1	2.001

COCCO [2-methoxyethan-1-ol]
[2]
Conditions	mass density [kg/m3]	speed of sound [m/s]	viscosity [mPa·s]
298.15 K	959.7	1339.4	1.543
308.15 K	951.5	–	1.257
318.15 K	945.9	–	1.051

CC#N [acetonitrile] + NC=O
Conditions	speed of sound [m/s]
[1], 298.15 K, x2 = 0	1260.2

[1], 101.3 kPa, x2 = 0
Conditions	mass density [kg/m3]	viscosity [mPa·s]
298.15 K	776	0.344
308.15 K	766.3	0.313
318.15 K	755	0.289

C[S+](C)[O-] [dimethyl sulfoxide] + NC=O
Conditions	speed of sound [m/s]
[1], 298.15 K, x2 = 0	1493

[1], 101.3 kPa, x2 = 0
Conditions	mass density [kg/m3]	viscosity [mPa·s]
298.15 K	1095.4	2.042
308.15 K	1085.9	1.568
318.15 K	1076.9	1.485

CC(=O)c1ccccc1 [acetophenone]
[2]
Conditions	mass density [kg/m3]	speed of sound [m/s]	viscosity [mPa·s]
298.15 K	1023.1	1296.4	1.653
308.15 K	1014.8	–	1.412
318.15 K	1007.5	–	1.117

NC=O [formamide] + COCCOC
Conditions	speed of sound [m/s]
[1], 298.15 K, x1 = 1	1591.3

[1], x1 = 1
Conditions	mass density, 298.15 K [kg/m3]	mass density, 308.15 K [kg/m3]	mass density, 318.15 K [kg/m3]	viscosity, 298.15 K [mPa·s]	viscosity, 308.15 K [mPa·s]	viscosity, 318.15 K [mPa·s]
101 kPa	1129.2	1120.5	1111.1	–	–	–
101.3 kPa	–	–	–	3.302	2.542	2.001

C[S+](C)[O-] [dimethyl sulfoxide]
[2]
Conditions	mass density [kg/m3]	speed of sound [m/s]	viscosity [mPa·s]
298.15 K	1095.4	1493	2.042
308.15 K	1085.9	–	1.568
318.15 K	1076.9	–	1.485
